Test system: HFD-induced obese mice
Assay: Serum lipids (TC, TG, HDL, LDL)
Assay type: in vivo, C57BL/6J mouse
Conditions: 12 weeks, mean ± SEM
Method: During the experimental period, the experimental group had free access to diet and drinking water. […] The same volume of PBS was administered to the negative control group and the positive control group. […] All mice were gavaged once a week for 12 weeks.
Blood samples were collected after 12 weeks of treatment from two mice from each experimental group in centrifuge tubes containing EDTA. Blood was drawn by puncturing the orbit through the orbit and within the orbit. Samples were centrifuged at 1200× for 15 minutes and incubated at 4° C. for 10 minutes. Serum aspartate aminotransferase (AST), alanine aminotransferase (ALT), TC, high-density lipoprotein (HDL), low-density lipoprotein (LDL) and TG were analyzed in the serum supernatant using an appropriate assay kit (Green Cross Biopharmaceutical, Yongin, Korea). The same samples were also used for hormone measurements.

## CCC(C)(C)C(=O)O[C@H]1C[C@@H](C)C=C2C=C[C@H](C)[C@H](CC[C@@H]3C[C@@H](O)CC(=O)O3)[C@H]21 [Simvastatin]
  TC: 51.50 ± 1.50 mg/dL
  TG: 30.00 ± 5.00 mg/dL

Reference: patent US12397023B2, “Composition comprising Lactococcus chungangensis for prevention or treatment of fatty liver or metabolic syndrome” (CHUNG ANG UNIVERSITY INDUSTRY ACADEMIC COOPERATION …, priority 2018, dated 2025)
